Test results from patent publication US20200291100A1, “TREATMENT OF AGE-RELATED AND MITOCHONDRIAL DISEASES BY INHIBITION OF HIF-1 ALPHA FUNCTION” (President and Fellows of Harvard College, priority 2012, published 2020).

Tests used:
C2C12 myoblasts = assay: DMOG treatment of C2C12 myoblasts, mtDNA content and ETC gene expression; assay type: cell-based, mouse; conditions: 16 h
Procedure: To test if the normal hypoxic response reproduces the effect of a SIRT1 deletion by causing genome asynchrony, C2C12 myoblasts were grown under hypoxic conditions (1% oxygen) or treated with dimethyloxaloylglycine (DMOG), a HIFα prolyl hydroxylase inhibitor that stabilizes HIF.
C2C12 cell line (ATCC) was cultured in low glucose Dulbecco's modified eagle medium (DMEM) (Invitrogen) supplemented with 10% FBS (Invitrogen) and a mix of antibiotic and antimycotic (Invitrogen). To inhibit SIRT1, cells were treated the vehicle (0.001% DMSO) or 10 μM EX-527 (Tocris) for 12 h. C2C12 myoblasts were infected with an empty or SIRT1 adenovirus as described before (Gerhart-Hines et al., 2007) and the media was replaced with fresh DMEM for additional 48 h, after that the cells were treated as described before. To test the effects of hypoxia and HIFα stabilization in genome asyncrony, C2C12 myoblasts were exposed to 1% oxygen for 16 h or treated with the vehicle (0.001% DMSO) or DMOG (Cayman) for the same period of time.
(§1) RNA from skeletal muscle tissue and C2C12 cells were extracted with RNeasy mini kit (Qiagen) according to the instructions and quantified using the NanoDrop 1000 spectrophotometer (Thermo Scientific). cDNA was synthesized with the iSCRIP cDNA synthesis kit (BioRad) using 600 ng of RNA. Quantitative RT-PCR reactions were performed using 1 μM of primers and LightCycler® 480 SYBR Green Master (Roche) on an LightCycler® 480 detection system (Roche). Calculations were performed by a comparative method (2-ΔCT) using 18S as an internal control. For mtDNA analysis, total DNA was extracted with DNeasy blood and tissue kit (Qiagen). mtDNA was amplified using primers specific for the mitochondrial cytochrome c oxidase subunit 2 (COX2) gene and normalized to genomic DNA by amplification of the ribosomal protein s18 (rps18) nuclear gene. Primers were designed using the IDT software (IDT) and the primer sequences can be found in Table 1.

SIRT1-tg mice = assay: DMOG treatment of SIRT1-tg mice, gastrocnemius readouts; assay type: in vivo, mouse; conditions: DMOG 300 mg/kg IP per day, 5 days
Procedure: Whole body SIRT1 overexpressor (SIRT1-tg) mice of 6 months of age were given interperitoneal (IP) injections of 300 mg DMOG/kg body weight per day or the equivalent volume of PBS for 5 consecutive days.
(§2) ATP content was measured with a commercial kit according to the manufacturer's instructions (Roche).
as §1
Protein extracts from tissue or C2C12 cells were obtained by lysis in ice-cold lysis buffer (150 mM NaCl, 10 mM Tris HCl (pH 7.4), 1 mM EDTA, 1 mM EGTA, 1% Triton X-100, 0.5% NP-40) supplemented with a cocktail of protease and phosphatase inhibitors (Roche). Protein content was determined by the Bradford protein assay (Biorad), and 50 μg proteins were run on SDS-PAGE under reducing conditions. The separated proteins were then electrophoretically transferred to a polyvinylidene difluoride membrane (Perkin-Elmer). […] The immunostaining was detected using horseradish peroxidase-conjugated anti-rabbit or anti-mouse immunoglobulin for 1 h at room temperature.

[1] = system: 3- and 24-month-old C57BL/6J mice; assay: NMN treatment of 3- and 24-month-old mice, skeletal muscle readouts; assay type: in vivo, mouse; conditions: NMN 500 mg/kg IP, one week
Procedure: C57BL/6J mice of 3, 6, 22, 24, or 30 months of age were obtained from the National Institutes of Aging mouse aging colony. Mice were acclimated for at least one-week prior to sacrifice. 3, and 24-month-old mice were given interperitoneal (IP) injections of 500 mg NMN/kg body weight per day or the equivalent volume of PBS for 7 consecutive days at 5:00 pm and 7:00 am on day 8 and sacrificed 4 hr after last injection. All animal studies followed the guidelines of and were approved by the Harvard Institutional Animal Care and Use Committee
Skeletal muscle mitochondria were isolated as described previously (Frezza et al., Nat. Protoc. 2:287-295 (2007)). Mitochondrial membrane potential, cytochrome c activity and succinate dehydrogenase were determined as described (Brautigan et al., Methods Enzymol. 53:128-164 (1978); Rolo et al., Biochim. Biophys. Acta. 1637:127-132 ([…]); Singer, T. P., Methods Biochem. Anal. 22:123-175 (1974)). ATP content was measured with a commercial kit according to the manufacturer's instructions (Roche).
NAD^+ from C2C12 cells and skeletal muscle was quantified with a commercially available kit (BioVision) according to the manufacturer's instructions and as described before (Gomes et al., Biochim. Biophys. Acta. 1822:185-195 (2012)).
To test whether a decline in NAD^+ availability, invokes a pseudohypoxic response in muscle that inhibits mitochondrial function, we treated 3- and 24-month-old C57BL/6J mice for one week by intraperitoneal injection of nicotinamide mononucleotide (NMN) (500 mg/kg body weight), a compound that increases NAD^+ levels in a variety of tissues. After the treatment, levels of cellular NAD^+ in both the young and old mice were approximately 2-fold higher, such that the treated 24-month-old mice resembled the untreated 3-month-olds (FIG. 10A).

Egln1 KO mice = assay: NMN treatment of Egln1 KO mice; assay type: in vivo, mouse; conditions: skeletal muscle of Egln1 KO mice compared to WT controls; NMN 500 mg/kg IP, 7 days
Procedure: Whole body adult-inducible Egln1 knockout mice (Minamishima et al, 2007) were treated with IP injection of tamoxifen for 3 days after which they were allowed to rest. The mice were given interperitoneal (IP) injections of 500 mg NMN/kg body weight per day or the equivalent volume of PBS for 7 consecutive days at 5:00 pm and 7:00 am on day 8 and sacrificed 4 hr after last injection. All animal studies followed the guidelines of and were approved by the Harvard Institutional Animal Care and Use Committee.
as §2
RNA from skeletal muscle tissue and C2C12 cells were extracted with RNeasy mini kit (Qiagen) according to the instructions and quantified using the NanoDrop 1000 spectrophotometer (Thermo Scientific). cDNA was synthesized with the iSCRIP cDNA synthesis kit (BioRad) using 600 ng of RNA. Quantitative RT-PCR reactions were performed using 1 μM of primers and LightCycler® 480 SYBR Green Master (Roche) on an LightCycler® 480 detection system (Roche). Calculations were performed by a comparative method (2-ΔCT) using 18S as an internal control. […]

[2] = skeletal muscle, treated old (24-month) mice

SMILES	expression of mitochondrially-encoded ETC genes (C2C12 myoblasts)	expression of nuclear-encoded ETC components (C2C12 myoblasts)	mtDNA content (C2C12 myoblasts)	HIF-1α protein (immunoblot) (SIRT1-tg mice)	effect on the increase in ATP levels observed in SIRT1-tg mice (SIRT1-tg mice)	effect on the increase in expression of mitochondrial-encoded genes observed in SIRT1-tg mice (SIRT1-tg mice)	expression of HIF-1α target genes (PGK-1, Glut1, PKD1, VEGFa) ([1]; gastrocnemius, qPCR, 24-month-old mice)	HIF-1α in muscle (immunoblot) ([1]; gastrocnemius, 24-month-old mice)	levels of cellular NAD+ ([1]; gastrocnemius, young and old mice, versus untreated)	mitochondrial membrane potential ([1]; isolated skeletal muscle mitochondria, treated old (24-month) mice)	ATP levels [1, 2]	COX activity [1, 2]	ATP levels (Egln1 KO mice)	mitochondrial-encoded genes (Egln1 KO mice)
COC(=O)CNC(=O)C(=O)OC [DMOG, dimethyloxaloylglycine]	specific decline	but not the nuclear-encoded components	specific decline	increase HIF-1α	abolished the increase	abolished the increase								
NC(=O)c1ccc[n+]([C@@H]2O[C@H](COP(=O)([O-])O)[C@@H](O)[C@H]2O)c1 [NMN, nicotinamide mononucleotide]							suppressed the expression	reversed the age-induced increase	approximately 2 fold	restoration of mitochondrial membrane potential to the levels of the young mice	increases	increases	did not restore	did not restore
